In ChEMBL document CHEMBL1201862, “PubChem BioAssay data set” (2004):
Blank lines part the entries; values can stand above or below the compound they belong to. The source made the active and inactive calls.

What was measured:
[1] = biological target: Cyclin-dependent kinase 5/CDK5 activator 1 (Homo sapiens, UniProt Q00535); test: CDK5/p35 kinase inhibitors, dose response, biochemical, cherry-picked samples, set 2 (AID 504545)
[2] = biological target: Peroxisome proliferator-activated receptor gamma/Nuclear receptor corepressor 2 (Homo sapiens, UniProt P37231+Q9Y618); assay type: functional
Peroxisome proliferator-activated receptor gamma/Nuclear receptor corepressor 2, sequence (P37231 whole entry): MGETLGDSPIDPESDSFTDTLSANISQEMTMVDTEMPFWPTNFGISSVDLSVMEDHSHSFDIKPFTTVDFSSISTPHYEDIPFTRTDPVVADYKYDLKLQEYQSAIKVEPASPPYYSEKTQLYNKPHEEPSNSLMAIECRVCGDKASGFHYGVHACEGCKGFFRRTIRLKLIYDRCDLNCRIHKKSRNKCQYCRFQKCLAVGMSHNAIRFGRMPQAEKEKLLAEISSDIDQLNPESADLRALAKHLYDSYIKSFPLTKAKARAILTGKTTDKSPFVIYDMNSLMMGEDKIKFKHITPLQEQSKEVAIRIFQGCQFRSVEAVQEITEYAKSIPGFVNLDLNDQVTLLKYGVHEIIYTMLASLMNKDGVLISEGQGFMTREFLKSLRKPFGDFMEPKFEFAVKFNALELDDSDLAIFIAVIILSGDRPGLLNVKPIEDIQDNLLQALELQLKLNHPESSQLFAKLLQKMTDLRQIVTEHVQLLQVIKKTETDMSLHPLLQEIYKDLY
Peroxisome proliferator-activated receptor gamma/Nuclear receptor corepressor 2, sequence (Q9Y618 whole entry): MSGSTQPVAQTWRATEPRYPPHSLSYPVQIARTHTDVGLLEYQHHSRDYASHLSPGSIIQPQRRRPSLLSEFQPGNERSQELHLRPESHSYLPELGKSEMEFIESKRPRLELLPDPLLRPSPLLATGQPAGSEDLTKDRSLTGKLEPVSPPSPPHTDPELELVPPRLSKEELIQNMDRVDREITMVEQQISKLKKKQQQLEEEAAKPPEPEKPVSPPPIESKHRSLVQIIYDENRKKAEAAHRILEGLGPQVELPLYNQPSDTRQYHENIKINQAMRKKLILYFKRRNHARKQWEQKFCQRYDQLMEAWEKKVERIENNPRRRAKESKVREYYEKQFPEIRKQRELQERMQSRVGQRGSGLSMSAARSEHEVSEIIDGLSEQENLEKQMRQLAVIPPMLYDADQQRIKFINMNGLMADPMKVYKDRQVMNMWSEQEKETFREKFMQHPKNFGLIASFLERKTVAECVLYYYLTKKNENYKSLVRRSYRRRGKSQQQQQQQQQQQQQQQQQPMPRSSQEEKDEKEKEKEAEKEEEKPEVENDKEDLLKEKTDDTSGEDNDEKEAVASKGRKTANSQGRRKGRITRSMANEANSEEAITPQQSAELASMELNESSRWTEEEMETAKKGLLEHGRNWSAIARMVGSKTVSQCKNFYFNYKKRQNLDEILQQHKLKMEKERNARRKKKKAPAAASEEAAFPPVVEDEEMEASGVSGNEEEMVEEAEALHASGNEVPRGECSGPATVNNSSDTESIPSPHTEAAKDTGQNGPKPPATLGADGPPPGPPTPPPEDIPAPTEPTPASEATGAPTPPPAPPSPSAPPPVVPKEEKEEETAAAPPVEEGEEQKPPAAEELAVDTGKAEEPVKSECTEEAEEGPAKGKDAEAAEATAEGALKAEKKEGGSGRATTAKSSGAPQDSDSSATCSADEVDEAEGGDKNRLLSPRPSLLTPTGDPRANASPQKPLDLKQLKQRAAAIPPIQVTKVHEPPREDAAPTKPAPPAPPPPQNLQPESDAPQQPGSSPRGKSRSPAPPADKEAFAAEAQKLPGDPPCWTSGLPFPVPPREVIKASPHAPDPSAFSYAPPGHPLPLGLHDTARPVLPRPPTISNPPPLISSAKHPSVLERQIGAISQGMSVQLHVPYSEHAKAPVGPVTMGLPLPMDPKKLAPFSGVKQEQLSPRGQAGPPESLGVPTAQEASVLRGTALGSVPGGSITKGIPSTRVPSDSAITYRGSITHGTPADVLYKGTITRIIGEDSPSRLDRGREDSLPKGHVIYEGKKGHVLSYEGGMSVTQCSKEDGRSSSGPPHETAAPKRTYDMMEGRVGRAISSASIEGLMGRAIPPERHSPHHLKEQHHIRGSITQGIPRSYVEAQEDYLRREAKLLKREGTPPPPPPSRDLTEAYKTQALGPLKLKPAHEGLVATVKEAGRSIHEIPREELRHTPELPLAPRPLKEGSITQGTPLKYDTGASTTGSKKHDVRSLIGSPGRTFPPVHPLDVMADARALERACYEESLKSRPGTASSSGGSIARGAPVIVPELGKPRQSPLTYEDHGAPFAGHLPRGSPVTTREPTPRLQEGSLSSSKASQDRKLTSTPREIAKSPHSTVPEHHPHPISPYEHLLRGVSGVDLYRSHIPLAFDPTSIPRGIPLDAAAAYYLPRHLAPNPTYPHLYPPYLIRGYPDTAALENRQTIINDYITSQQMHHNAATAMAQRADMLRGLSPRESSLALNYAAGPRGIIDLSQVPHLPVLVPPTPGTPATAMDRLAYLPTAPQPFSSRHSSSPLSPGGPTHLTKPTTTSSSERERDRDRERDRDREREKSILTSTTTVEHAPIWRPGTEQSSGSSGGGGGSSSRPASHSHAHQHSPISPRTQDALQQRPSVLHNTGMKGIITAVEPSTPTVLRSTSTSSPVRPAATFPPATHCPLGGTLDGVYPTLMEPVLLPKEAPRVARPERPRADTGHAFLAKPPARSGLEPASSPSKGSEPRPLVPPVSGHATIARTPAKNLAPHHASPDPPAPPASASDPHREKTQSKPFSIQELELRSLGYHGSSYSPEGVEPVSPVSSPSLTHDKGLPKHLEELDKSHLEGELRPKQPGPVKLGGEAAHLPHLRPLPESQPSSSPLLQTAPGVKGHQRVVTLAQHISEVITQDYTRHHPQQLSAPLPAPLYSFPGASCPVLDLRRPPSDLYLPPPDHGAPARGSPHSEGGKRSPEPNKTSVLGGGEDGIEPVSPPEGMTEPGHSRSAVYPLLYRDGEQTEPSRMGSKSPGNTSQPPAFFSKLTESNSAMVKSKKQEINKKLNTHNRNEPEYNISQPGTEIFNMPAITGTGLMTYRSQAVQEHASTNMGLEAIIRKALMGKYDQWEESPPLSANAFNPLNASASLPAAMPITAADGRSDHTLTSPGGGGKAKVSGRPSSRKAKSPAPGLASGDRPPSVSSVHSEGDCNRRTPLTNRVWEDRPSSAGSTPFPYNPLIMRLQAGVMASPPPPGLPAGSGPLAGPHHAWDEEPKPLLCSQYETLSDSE

[3] = biological target: Photoreceptor-specific nuclear receptor (Homo sapiens, UniProt Q9Y5X4); assay type: functional;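 note: potency for compounds that break the NR2E3 corepressor complex and count as activators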
[4] = inhibitors of intracellular T. cruzi replication, confirmation, NIH3T3 host cells, beta-gal luminescence (AID 2044); assay type: functional, cell-based;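 note: intracellular parasites grown in NIH/3T3 mouse fibroblasts as host cells; luminescent beta-galactosidase reporter signal from transgenic T. cruzi replicating inside host cells; inhibitors lower the luminescence signal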
[5] = HepG2 cell cytotoxicity, dose response, cytotoxicity control for Shn3 inhibitor project, CellTiter-Glo, cherry-picked (AID 624134); assay type: functional, cell-based
[6] = control 3'UTR Renilla luciferase suppression, dose response, counter-screen for Shn3 inhibitor project, cell-based, Clone20-Shn3RL, cherry-picked (AID 624133); assay type: functional
cells [7] = assay type: functional, cell-based
BJ [8] = test: cytotoxicity toward BJ-TERT-LT-ST fibroblasts, dose response, cell-based, RAS-independent, luminescence (AID 1935); assay type: functional; settings: Homo sapiens;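 note: BJ fibroblasts immortalized with TERT plus LT and ST oncogenes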
cells [9] = assay type: functional, cell-based; remark: listed apart in the source
BJ [10] = test: cytotoxicity toward BJ-TERT fibroblasts, dose response, cell-based, RAS-independent, luminescence (AID 1933); assay type: functional; settings: Homo sapiens
[11] = biological target: Serine/threonine-protein phosphatase PP1-alpha catalytic subunit (Homo sapiens, UniProt P62136); test: PP1 phosphatase inhibitors, dose response, biochemical, fluorescence (AID 2403);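 note: phosphatase turnover of OMFP into fluorescent 3-O-methylfluorescein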
Serine/threonine-protein phosphatase PP1-alpha catalytic subunit, sequence (P62136 whole entry): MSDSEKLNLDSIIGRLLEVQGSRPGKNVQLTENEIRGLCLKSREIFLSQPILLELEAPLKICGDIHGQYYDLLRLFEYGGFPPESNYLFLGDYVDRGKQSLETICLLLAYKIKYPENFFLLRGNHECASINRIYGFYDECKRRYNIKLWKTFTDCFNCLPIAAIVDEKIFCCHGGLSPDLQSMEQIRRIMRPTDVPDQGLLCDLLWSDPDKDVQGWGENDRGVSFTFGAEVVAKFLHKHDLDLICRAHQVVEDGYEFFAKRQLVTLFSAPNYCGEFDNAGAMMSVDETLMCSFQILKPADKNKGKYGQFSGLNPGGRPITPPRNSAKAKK

[12] = cytotoxicity toward DRD oncogenic fibroblasts, dose response, cell-based, non-viral oncogenic, luminescence (AID 1934); assay type: functional; settings: Homo sapiens
[13] = biological target: Serine/threonine-protein phosphatase (Homo sapiens, UniProt Q9BPW0); test: Counterscreen for inhibitors of PP1: fluorescence-based biochemical high throughput dose response assay to identify inhibitors of Protein Phosphatase 5 (PP5). [Related pubchem assays: 2034 (Summary (PP5 inhibitors)), 1987 (PP5 inhibitors in singlate), 2235 (PP1 inhibitors in singlate)]
Serine/threonine-protein phosphatase, sequence (Q9BPW0 whole entry): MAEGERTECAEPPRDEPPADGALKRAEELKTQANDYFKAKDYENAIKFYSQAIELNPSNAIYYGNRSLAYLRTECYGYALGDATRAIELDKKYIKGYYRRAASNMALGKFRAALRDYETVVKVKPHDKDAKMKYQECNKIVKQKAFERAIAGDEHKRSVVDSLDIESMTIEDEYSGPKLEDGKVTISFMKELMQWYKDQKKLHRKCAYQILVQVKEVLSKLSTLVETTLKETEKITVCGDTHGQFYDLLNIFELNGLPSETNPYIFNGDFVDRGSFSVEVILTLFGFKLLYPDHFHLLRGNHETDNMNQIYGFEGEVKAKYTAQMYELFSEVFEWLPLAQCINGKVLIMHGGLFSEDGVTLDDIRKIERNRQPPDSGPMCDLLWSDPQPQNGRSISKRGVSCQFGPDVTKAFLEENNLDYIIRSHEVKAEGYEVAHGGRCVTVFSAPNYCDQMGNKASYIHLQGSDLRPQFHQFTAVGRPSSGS

Streptococcus = test: Group A Streptococcus viability loss, dose response, counter-screen for streptokinase expression inhibitor project, luminescence, BacTiterGlo (AID 1915); assay type: functional, organism-based;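 note: potency for reduction of bacterial viability or growth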
[14] = cytotoxicity toward NIH3T3 fibroblasts, dose response, counter-screen, cell-based, ATP luminescence, mouse fibroblasts (AID 2010); assay type: functional;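 note: cells exposed to compound for about 90 hours before reading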
[15] = test system: Streptococcus sp. 'group A'; test: growth inhibition of control SK(-) GAS strain, dose response, counter-screen for streptokinase expression inhibitor project, luminescence, kanamycin, BacTiterGlo, confirmation (AID 1900); assay type: functional, organism-based
BJ [16] = test: cells; assay type: functional, cell-based, Homo sapiens; settings: Homo sapiens, BJ
INS1 = test: beta cell apoptosis inhibitors, cytokine rescue, dose response, luminescence, retest (AID 449756); assay type: functional, cell-based; settings: Rattus norvegicus;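 note: cell death triggered by IL-1 beta plus TNF-alpha plus IFN-gamma mixture; protective hits raise ATP signal compared with cytokine alone wells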
[17] = Shn3 3'UTR reporter inhibitors, dose response, cell-based, Clone20 osteoblasts, firefly luciferase, cherry-picked (AID 624132); assay type: functional;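 note: firefly luciferase luminescence from reporter carrying the Shn3 3'UTR in osteoblasts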
[18] = biological target: T1, Oxysterols receptor LXR-beta (Homo sapiens, UniProt P55055); test: LXR agonists, Gal4 luciferase reporter, dose response, counter-screen for ssDAF-12 agonist project, cell-based, luminescence, HEK293, S. stercoralis campaign (AID 720737); assay type: functional; settings: read-out: IC50 (the source's name)
T1 sequence (P55055 whole entry): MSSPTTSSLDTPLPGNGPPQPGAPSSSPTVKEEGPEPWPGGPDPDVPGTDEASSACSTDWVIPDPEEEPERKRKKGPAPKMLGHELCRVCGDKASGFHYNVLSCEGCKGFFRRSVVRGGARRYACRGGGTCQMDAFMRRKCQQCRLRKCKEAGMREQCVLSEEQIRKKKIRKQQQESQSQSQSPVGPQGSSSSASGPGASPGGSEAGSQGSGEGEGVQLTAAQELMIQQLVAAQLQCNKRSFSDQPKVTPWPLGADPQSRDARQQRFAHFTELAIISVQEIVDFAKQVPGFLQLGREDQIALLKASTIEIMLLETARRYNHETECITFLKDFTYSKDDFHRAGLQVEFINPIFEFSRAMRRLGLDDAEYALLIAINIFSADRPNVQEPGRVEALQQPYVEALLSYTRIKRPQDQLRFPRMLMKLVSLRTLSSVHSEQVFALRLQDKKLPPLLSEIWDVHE

[19] = Luminescence-based cell-based high throughput dose response assay to identify activators of the DAF-12 from the parasite S. stercoralis (ssDAF-12).; assay type: functional
[20] = biological target: Dual specificity tyrosine-phosphorylation-regulated kinase 1A (Rattus norvegicus, UniProt Q63470); assay type: biochemical, Homo sapiens
[21] = biological target: Glyceraldehyde-3-phosphate dehydrogenase (Homo sapiens, UniProt P04406)
Glyceraldehyde-3-phosphate dehydrogenase, sequence (P04406 whole entry): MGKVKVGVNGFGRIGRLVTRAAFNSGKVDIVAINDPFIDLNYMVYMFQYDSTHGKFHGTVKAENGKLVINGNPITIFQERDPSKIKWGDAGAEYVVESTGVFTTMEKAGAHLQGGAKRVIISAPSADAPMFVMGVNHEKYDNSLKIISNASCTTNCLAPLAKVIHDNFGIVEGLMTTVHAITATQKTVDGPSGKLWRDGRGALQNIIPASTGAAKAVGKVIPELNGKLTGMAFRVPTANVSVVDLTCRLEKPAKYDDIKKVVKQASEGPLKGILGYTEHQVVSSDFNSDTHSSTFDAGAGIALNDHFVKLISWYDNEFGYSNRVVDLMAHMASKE

Cyclin-dependent kinase 5/CDK5 activator 1, sequence (Q00535 whole entry): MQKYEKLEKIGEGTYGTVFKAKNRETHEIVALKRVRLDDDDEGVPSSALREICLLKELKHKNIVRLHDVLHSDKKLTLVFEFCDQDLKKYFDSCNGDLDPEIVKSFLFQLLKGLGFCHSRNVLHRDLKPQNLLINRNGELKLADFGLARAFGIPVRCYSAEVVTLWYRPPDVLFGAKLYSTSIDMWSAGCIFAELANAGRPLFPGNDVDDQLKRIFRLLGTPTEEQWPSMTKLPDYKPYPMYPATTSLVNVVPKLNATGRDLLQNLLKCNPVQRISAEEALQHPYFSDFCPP
Cyclin-dependent kinase 5/CDK5 activator 1, sequence (Q15078 whole entry, further chain): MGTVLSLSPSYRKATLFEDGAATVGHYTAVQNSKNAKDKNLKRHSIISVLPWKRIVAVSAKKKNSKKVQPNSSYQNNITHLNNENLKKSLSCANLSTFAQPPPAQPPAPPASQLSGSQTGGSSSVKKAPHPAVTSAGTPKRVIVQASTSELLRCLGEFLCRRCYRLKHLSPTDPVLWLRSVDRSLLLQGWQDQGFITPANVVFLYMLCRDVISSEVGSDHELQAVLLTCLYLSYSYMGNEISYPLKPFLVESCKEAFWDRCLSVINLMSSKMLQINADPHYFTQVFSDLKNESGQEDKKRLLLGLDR

Structure (SMILES): Cc1ccc(Nc2c(-c3ccccn3)nc3cccc(C)n23)cc1
EC50 [4]: 0.488 µM (active)
AC50 [5]: 25.6 µM (active)
AC50 [6]: 0.907 µM (active)
EC50 (cells [7]): > 350 µM (not active)
EC50 (BJ [8]): 8.61 µM (inconclusive)
EC50 (cells [9]): 12.7 µM (active)
EC50 (BJ [10]): 6.81 µM (active)
IC50 [11]: 8.52 µM (active)
EC50 [12]: 13.5 µM (active)
IC50 [13]: 45.1 µM (not active)
EC50 (Streptococcus): 1.35 µM (active)
EC50 [14]: < 6 µM (inconclusive)
EC50 [15]: 0.77 µM (active)
EC50 (BJ [16]): 14.3 µM (active)
AC50 (INS1): 2.77 µM (active)
AC50 [17]: 1.9 µM (active)

Structure (SMILES): O=C(O)c1ccc(/C=N/Nc2ccc(C(F)(F)F)cn2)cc1
EC50 [18]: > 67.6 µM (inactive)
AC50 [1]: 5.54 µM (active)
IC50 [19]: > 67.6 µM (inactive)
AC50 [20]: 7.95 µM (active)

Structure (SMILES): CCN1CCN(C2=C(Cl)C(=O)N(c3ccc(C)cc3)C2=O)CC1
IC50 [21]: > 50 µM (inconclusive)

Continued, values first:

AC50 [1]: 36.7 µM (active)
Structure (SMILES): Nc1ccc(-c2cnc(N)c(C(=O)c3cccnc3)n2)cn1

IC50 [2]: 2.78 µM (active)
IC50 [3]: > 39.8 µM (not active)
Structure (SMILES): N#Cc1ccc(Cl)cc1NC(=O)COC(=O)c1ccc2c(c1)OCCO2

IC50 [21]: > 100 µM (not active)
Structure (SMILES): O=C(O)CSc1ccc2cc(O)ccc2c1
